Molecules are shown by their SMILES. Read-outs that look alike come from different tables or passages of the source.

Experiment [1] deals with human orexin-1 receptor (hOX1R) (Homo sapiens (Human), UniProt O43613). Description: Measurement of orexin antagonistic activity (intracellular Ca2+ fluorescence, FDSS), hOX1R. In kind it is cell-based. The following applies: ligand peptide (modified human orexin-A) 300 pM, maximum fluorescence intensity. As for the experimental part:
(§1) Chinese hamster ovary (CHO) cells forcibly expressing the hOX1R and hOX2R were seeded into a 96 well Black clear bottom plate (Nunc) at 20,000 cells per well, which were cultured in Ham's F-12 medium containing 0.1 mM MEM non-essential amino acids, 0.5 mg/ml G418, 10% fetal bovine serum (all by Invitrogen) for 16 hours under the conditions of 37° C., 5% CO2. After removing the medium, 100 μL of 0.5 μM Fluo-4AM ester (Dojin) in an assay buffer (25 mM HEPES (Dojin), Hank's balanced salt solution (Invitrogen), 0.1% bovine serum albumin, 2.5 mM probenecid, 200 μg/ml Amaranth (all by Sigma-Aldrich), pH 7.4) was added and the cells were incubated for 60 minutes at 37° C., 5% CO2. After removing the assay buffer containing fluo-3AM ester, the test compound was dissolved in dimethyl sulfoxide to be 10 mM and diluted with the assay buffer, 150 μL of which was added and incubated for 30 minutes.
(§2) The reaction was measured for the fluorescence intensity of each well every second for 3 minutes using Functional Drug Screening System (FDSS; Hamamatsu Photonics K.K.), and the antagonistic activity was determined using the maximum fluorescence intensity as the indicator of intracellular Ca2+ concentration.

In experiment [2] the target is human orexin-2 receptor (hOX2R) (Homo sapiens (Human), UniProt O43614). In words: Measurement of orexin antagonistic activity (intracellular Ca2+ fluorescence, FDSS), hOX2R. Type of experiment: cell-based. As for the experimental part: as §1, with “The antagonistic activities of the test compounds on human orexin-1 receptor (hOX1R) and orexin-2 receptor (hOX2R) were measured by modifying from the method described in literature (Toshikatsu Okumura et al., Biochemical and Biophysical Research Communications 280, 976-981, 2001). Chinese” for “Chinese”
Sequence of human orexin-2 receptor (hOX2R) (O43614 whole entry): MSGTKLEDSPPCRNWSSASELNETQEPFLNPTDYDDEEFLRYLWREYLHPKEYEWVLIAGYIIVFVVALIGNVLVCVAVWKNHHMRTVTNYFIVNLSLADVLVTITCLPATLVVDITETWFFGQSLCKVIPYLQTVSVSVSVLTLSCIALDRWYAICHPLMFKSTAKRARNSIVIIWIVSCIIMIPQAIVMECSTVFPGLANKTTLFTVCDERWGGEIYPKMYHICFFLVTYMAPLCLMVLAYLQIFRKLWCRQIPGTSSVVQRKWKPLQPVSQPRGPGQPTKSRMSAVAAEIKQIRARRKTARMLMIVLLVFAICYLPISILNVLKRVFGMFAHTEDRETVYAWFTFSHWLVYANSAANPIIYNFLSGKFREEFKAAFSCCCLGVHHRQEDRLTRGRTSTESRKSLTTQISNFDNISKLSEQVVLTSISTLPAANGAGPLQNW
as §2

Where [3] appears, read: CHO cells forcibly expressing hOX1R, read-out: IC50 Value OX1.
Where [4] appears, read: CHO cells forcibly expressing hOX2R, ligand peptide (modified human orexin-A) 3 nM, maximum fluorescence intensity, read-out: IC50 Value OX2.

Sequence of human orexin-1 receptor (hOX1R) (O43613 whole entry): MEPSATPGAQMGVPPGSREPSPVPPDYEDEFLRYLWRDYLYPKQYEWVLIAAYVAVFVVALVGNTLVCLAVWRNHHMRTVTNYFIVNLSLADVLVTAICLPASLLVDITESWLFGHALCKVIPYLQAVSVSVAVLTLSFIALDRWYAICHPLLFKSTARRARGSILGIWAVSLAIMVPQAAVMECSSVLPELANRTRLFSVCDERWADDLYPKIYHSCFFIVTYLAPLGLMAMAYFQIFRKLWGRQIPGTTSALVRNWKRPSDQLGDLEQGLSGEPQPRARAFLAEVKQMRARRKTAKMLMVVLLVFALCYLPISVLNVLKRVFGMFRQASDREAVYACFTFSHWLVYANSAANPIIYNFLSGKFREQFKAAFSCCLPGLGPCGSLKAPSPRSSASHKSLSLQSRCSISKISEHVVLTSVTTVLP

For `Cc1ccc(-n2nccn2)c(C(=O)N2CCOC2Cc2ccn(-c3ccc(F)cn3)n2)c1` (single isomer, unassigned; (-)) [Example 45, (−)-[2-{[1-(5-Fluoropyridin-2-yl)-1H-pyrazol-3-yl]methyl}-1,3-oxazolidin-3-yl][5-methyl-2-(2H-1,2,3-triazol-2-yl)phenyl]methanone], the IC50 in experiment [1] (setting [3]) is 2.7 nM; in experiment [2] (setting [4]), 12.1 nM.

On to `Cc1ccc(-n2nccn2)c(C(=O)N2CCOC2Cn2cc(-c3ccc(F)cn3)cn2)c1` (single isomer, unassigned; (-)) [Example 2, (−)-(2-[[4-(5-fluoropyridin-2-yl)-1H-pyrazol-1-yl]-methyl]-1,3-oxazolidin-3-yl)[5-methyl-2-(2H-1,2,3-triazol-2-yl)phenyl] methanone], for which the figures for the IC50 in experiment [1] (setting [3]) and in experiment [2] (setting [4]) were 14.3 nM and 18.6 nM, respectively.

With `O=C(c1cc(F)ccc1-c1ncccn1)N1CCOC1Cn1ccc(-c2ccc(F)cc2)n1` (racemic) [Example 21], the IC50 in experiment [1] (setting [3]) came out at 30.2 nM; in experiment [2] (setting [4]) it was 234 nM.

For the compound `Cc1ccc(-n2nccn2)c(C(=O)N2CCOC2Cn2cc(-c3ccc(F)cc3)cn2)n1` (racemic) [Example 23, (±)-(2-[[4-(4-fluorophenyl)-1H-pyrazol-1-yl]methyl]-1,3-oxazolidin-3-yl)[6-methyl-3-(2H-1,2,3-triazol-2-yl)pyridin-2-yl]methanone], the IC50 was determined as 96.3 nM in experiment [1] (setting [3]) and 112 nM in experiment [2] (setting [4]).

Take `O=C(c1cc(F)ccc1-c1ncccn1)N1CCOC1Cn1ccc(-c2ccc(F)cn2)n1` (racemic) [Example 16, (±)-(2-[[3-(5-fluoropyridin-2-yl)-1H-pyrazol-1-yl]methyl]-1,3-oxazolidin-3-yl) [5-fluoro-2-(pyrimidin-2-yl)phenyl]methanone]: the IC50 in experiment [1] (setting [3]) turned out to be 28.9 nM; in experiment [2] (setting [4]), 71.7 nM.

For the compound `Cc1ccc(-n2nccn2)c(C(=O)N2[C@H](Cn3cc(-c4ccc(F)cn4)cn3)OCC[C@@H]2C)c1` [Example 39, [(2S,4S)-2-{[4-(5-Fluoropyridin-2-yl)-1H-pyrazol-1-yl]methyl}-4-methyl-1,3-oxazinan-3-yl}[5-methyl-2-(2H-1,2,3-triazol-2-yl)phenyl]methanone], the IC50 in experiment [1] (setting [3]) worked out at 81.2 nM; in experiment [2] (setting [4]), 46.6 nM.

As for `Cc1ccc(-n2nccn2)c(C(=O)N2CCOC2Cn2ccc(-c3ccc(F)cc3)n2)n1` (single isomer, unassigned; (-)) [Example 26, (−)-(2-[[3-(4-fluorophenyl)-1H-pyrazol-1-yl]methyl]-1,3-oxazolidin-3-yl) [6-methyl-3-(2H-1,2,3-triazol-2-yl)pyridin-2-yl] methanone], the IC50 in experiment [1] (setting [3]) came out at 21.7 nM; in experiment [2] (setting [4]), 59.1 nM.

Regarding `O=C(c1cc(F)ccc1-n1nccn1)N1CCCOC1Cn1ccc(-c2ccc(F)cn2)n1` (single isomer, unassigned; (-)) [Example 29, (−)-(2-[[3-(5-fluoropyridin-2-yl)-1H-pyrazol-1-yl]methyl]-1,3-oxazinan-3-yl)[5-fluoro-2-(2H-1,2,3-triazol-2-yl)phenyl]methanone], the IC50 in experiment [1] (setting [3]) was 3.2 nM; in experiment [2] (setting [4]), 1.2 nM.

For the compound `O=C(c1cc(F)ccc1-c1ncccn1)N1CCCOC1Cn1ccc(-c2ccc(F)cn2)n1` (single isomer, unassigned; (-)) [Example 34, (−)-[2-[[3-(5-fluoropyridin-2-yl)-1H-pyrazol-1-yl]methyl]-l,3-oxazinan-3-yl] [5-fluoro-2-(pyrimidin-2-yl)phenyl]methanone], the IC50 was 2.2 nM in experiment [1] (setting [3]) and 6.2 nM in experiment [2] (setting [4]).

On to `Cc1ccc(-n2nccn2)c(C(=O)N2CCCOC2Cn2cc(-c3ccc(F)cc3)cn2)n1` (single isomer, unassigned; (-)) [Example 31, (−)-(2-[[4-(4-fluorophenyl)-1H-pyrazol-1-yl]methyl]-1,3-oxazinan-3-yl) [6-methyl-3-(2H-l,2,3-triazol-2-yl)pyridin-2-yl] methanone], for which the results for the IC50 in experiment [1] (setting [3]) and in experiment [2] (setting [4]) were 10.9 nM and 7.3 nM, respectively.

For the compound `Cc1ccc(-c2ncccn2)c(C(=O)N2CCCOC2Cn2cc(-c3ccc(F)cc3)cn2)n1` (single isomer, unassigned; (-)) [Example 32, (−)-(2-[[4-(4-fluorophenyl)-1H-pyrazol-1-yl]methyl]-l,3-oxazinan-3-yl)[6-methyl-3-(pyrimidin-2-yl)pyridin-2-yl] methanone], the IC50 amounted to 34.4 nM in experiment [1] (setting [3]) and 22.6 nM in experiment [2] (setting [4]).

With `Cc1ccc(-c2ncccn2)c(C(=O)N2CCOC2Cn2ccc(-c3ccc(F)cc3)n2)c1` (racemic) [Example 20, (±)-(2-[[3-(4-fluorophenyl)-1H-pyrazol-1-yl]methyl]-1,3-oxazolidin-3-yl)[5-methyl-2-(pyrimidin-2-yl)phenyl]methanone], the IC50 is 12.3 nM in experiment [1] (setting [3]) and 101 nM in experiment [2] (setting [4]).

Regarding `Cc1ccc(-n2nccn2)c(C(=O)N2[C@H](C)CO[C@H]2Cn2cc(-c3ccc(F)cn3)cn2)c1` [Example 8, [(2S,4R)-2-[[4-(5-fluoropyridin-2-yl)-1H-pyrazol-1-yl]-methyl]-4-methyl-1,3-oxazolidin-3-yl] [5-methyl-2-(2H-1,2,3-triazol-2-yl)phenyl] methanone], the IC50 in experiment [1] (setting [3]) came out at 60.9 nM; in experiment [2] (setting [4]), 460 nM.

Consider `Cc1ccc(-n2nccn2)c(C(=O)N2[C@H](Cn3cc(-c4ccc(F)cn4)cn3)OC[C@@H]2C)c1` [Example 10, (−)-[(2S,4S)-2-[[4-(5-fluoropyridin-2-yl)-1H-pyrazol-1-yl]methyl]-4-methyl-1,3-oxazolidin-3-yl] [5-methyl-2-(2H-1,2,3-triazol-2-yl)phenyl] methanone], for which the IC50 in experiment [1] (setting [3]) came to 201 nM; in experiment [2] (setting [4]) it was 273 nM.

In the case of `Cc1ccc(-c2ncccn2)c(C(=O)N2CCCOC2Cc2cnn(-c3ccc(F)cn3)c2)c1` (racemic) [Example 42, (±)-[2-[[1-(5-fluoropyridin-2-yl)-1H-pyrazol-4-yl]methyl]-1,3-oxazinan-3-yl] [5-methyl-2-(pyrimidin-2-yl)phenyl]methanone], the IC50 was found to be 17.2 nM in experiment [1] (setting [3]) and 20.4 nM in experiment [2] (setting [4]).

Turning to `Cc1ccc(-n2nccn2)c(C(=O)N2CCCOC2Cc2noc(-c3ccc(F)cc3)n2)n1` (single isomer, unassigned; (-)) [Example 38, (−)-[2-[[5-(4-fluorophenyl)-1,2,4-oxadiazol-3-yl]methyl]-1,3-oxazinan-3-yl] [6-methyl-3-(2H-1,2,3-triazol-2-yl)pyridin-2-yl] methanone], the IC50 in experiment [1] (setting [3]) stood at 2.1 nM; in experiment [2] (setting [4]) it was 7.3 nM.

`Cc1ccc(-n2nccn2)c(C(=O)N2CCCOC2Cc2noc(-c3ccc(F)cn3)n2)c1` (single isomer, unassigned; (-)) [Example 36, (−)-[2-[[5-(5-fluoropyridin-2-yl)-1,2,4-oxadiazol-3-yl]methyl]-1,3-oxazinan-3-yl] [5-methyl-2-(2H-1,2,3-triazol-2-yl)phenyl] methanone]: the IC50 came out at 3.8 nM in experiment [1] (setting [3]) and 6.9 nM in experiment [2] (setting [4]).

`Cc1ccc(-n2nccn2)c(C(=O)N2CCOC2Cc2cnn(-c3ccc(F)cn3)c2)c1` (single isomer, unassigned; (-)) [Example 46, (−)-[2-{[1-(5-Fluoropyridin-2-yl)-1H-pyrazol-4-yl]methyl}-1,3-oxazolidin-3-yl][5-methyl-2-(2H-1,2,3-triazol-2-yl)phenyl]methanone]: the IC50 was 31.9 nM in experiment [1] (setting [3]) and 38.7 nM in experiment [2] (setting [4]).

In the case of `O=C(c1ccccc1-n1nccn1)N1CCOC1Cn1ccc(-c2ccc(F)cn2)n1` (racemic) [Example 11, (±)-(2-{[3-(5-Fluoropyridin-2-yl)-1H-pyrazol-1-yl]methyl}-1,3-oxazolidin-3-yl)[2-(2H-1,2,3-triazol-2-yl)phenyl]methanone], the IC50 was determined as 17.5 nM in experiment [1] (setting [3]) and 252 nM in experiment [2] (setting [4]).

With `Cc1ccc(-n2nccn2)c(C(=O)N2CCCOC2Cn2ccc(-c3ccc(F)cn3)n2)c1` (single isomer, unassigned; (-)) [Example 3, (−)-(2-[[3-(5-fluoropyridin-2-yl)-1H-pyrazol-1-yl]-methyl]-1,3-oxazinan-3-yl)[5-methyl-2-(2H-1,2,3-triazol-2-yl)phenyl] methanone], the IC50 in experiment [1] (IC50 Value OX1, CHO cells forcibly expressing hOX1R) stood at 0.7 nM; in experiment [2], 1.2 nM.

As a reminder, the IC50 is the point on the concentration scale where inhibition reaches its midpoint.
